Assay results: BigSolDB 2.1

CCOc1cccc(C=O)c1O
solubility (mole fraction)
Settings | 278.15 K | 283.15 K | 288.15 K | 293.15 K | 298.15 K | 303.15 K | 308.15 K | 313.15 K
in acetone | 0.155 | 0.217 | 0.272 | 0.325 | 0.384 | 0.446 | 0.523 | 0.605
in acetonitrile | 0.104 | 0.154 | 0.206 | 0.254 | 0.303 | 0.352 | 0.415 | 0.498
in ethanol | 0.0153 | 0.0195 | 0.0287 | 0.0433 | 0.0662 | 0.102 | 0.145 | 0.214
in ethyl acetate | 0.134 | 0.174 | 0.209 | 0.25 | 0.294 | 0.344 | 0.403 | 0.497
in isopropanol | 0.0095 | 0.0143 | 0.0197 | 0.0284 | 0.0437 | 0.0642 | 0.0925 | 0.151
in methanol | 0.0196 | 0.0355 | 0.0567 | 0.0786 | 0.132 | 0.211 | 0.304 | 0.434
in methyl acetate | 0.137 | 0.185 | 0.227 | 0.281 | 0.335 | 0.388 | 0.475 | 0.563
in n-butanol | 0.0163 | 0.0206 | 0.0287 | 0.0398 | 0.0566 | 0.0795 | 0.116 | 0.164
in n-butyl acetate | 0.0985 | 0.125 | 0.158 | 0.188 | 0.237 | 0.281 | 0.334 | 0.409
in n-propanol | 0.0145 | 0.0198 | 0.0262 | 0.0395 | 0.0576 | 0.0824 | 0.124 | 0.176
in n-propyl acetate | 0.105 | 0.136 | 0.164 | 0.205 | 0.248 | 0.312 | 0.374 | 0.464
in water | 5.24e-05 | 6.55e-05 | 7.32e-05 | 8.68e-05 | 0.000106 | 0.000125 | 0.000155 | 0.000191
